Test results published in BindingDB's records for doi:10.1021/jm970338c (University of Grenoble, 1998).

The compounds below were run against Beta-2 adrenergic receptor (Rattus norvegicus) (UniProt P10608) (assay: Inhibition of beta-2 adrenergic receptor isolated from rat lung homogenates).
Chain of Beta-2 adrenergic receptor (Rattus norvegicus) (P10608 whole entry, looked up): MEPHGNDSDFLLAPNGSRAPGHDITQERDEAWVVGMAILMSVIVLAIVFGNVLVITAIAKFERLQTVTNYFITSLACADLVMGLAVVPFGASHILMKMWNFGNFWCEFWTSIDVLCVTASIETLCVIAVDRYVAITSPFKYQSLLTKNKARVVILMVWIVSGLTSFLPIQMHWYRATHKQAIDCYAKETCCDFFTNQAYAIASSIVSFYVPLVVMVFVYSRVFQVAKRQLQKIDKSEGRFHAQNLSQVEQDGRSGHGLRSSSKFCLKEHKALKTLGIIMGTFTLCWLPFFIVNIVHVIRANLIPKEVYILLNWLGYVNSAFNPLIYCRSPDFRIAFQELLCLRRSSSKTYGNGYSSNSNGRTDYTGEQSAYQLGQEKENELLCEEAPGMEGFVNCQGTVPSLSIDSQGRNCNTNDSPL
In the case of OC(CNc1ccccc1-c1ccccc1)CON=C(C1CC1)C1CC1 (stereo unspecified) [Dicyclopropyl-methanone O-[3-(biphenyl-2-ylamino)-2-hydroxy-propyl]-oxime], the IC50 is reported as > 10 µM.
O=[N+]([O-])c1ccc(NCC(O)CO[N-][C+](C2CC2)C2CC2)cc1 (stereo unspecified) [Dicyclopropyl-methanone O-[2-hydroxy-3-(4-nitro-phenylamino)-propyl]-oxime] was tested, and the IC50 was > 10 µM.
With CN(CC(O)CON=C(C1CC1)C1CC1)c1ccccc1 (stereo unspecified) [Dicyclopropyl-methanone O-[2-hydroxy-3-(methyl-phenyl-amino)-propyl]-oxime] the IC50 was > 10 µM.
In the case of CC(C)(N)Cc1ccc(NCC(O)CON=C(C2CC2)C2CC2)cc1 (stereo unspecified) [Dicyclopropyl-methanone O-{3-[4-(2-amino-2-methyl-propyl)-phenylamino]-2-hydroxy-propyl}-oxime], the IC50 is reported as > 10 µM.
With OC(CNc1ccccn1)CON=C(C1CC1)C1CC1 (stereo unspecified) [Dicyclopropyl-methanone O-[2-hydroxy-3-(pyridin-2-ylamino)-propyl]-oxime] the IC50 was > 10 µM.
With OC(CNc1ccc(-c2ccccc2)cc1)CON=C(C1CC1)C1CC1 (stereo unspecified) [Dicyclopropyl-methanone O-[3-(biphenyl-4-ylamino)-2-hydroxy-propyl]-oxime] the IC50 was > 10 µM.
For Cc1ccc(NCC(O)CON=C(C2CC2)C2CC2)cc1 (stereo unspecified) [Dicyclopropyl-methanone O-(2-hydroxy-3-p-tolylamino-propyl)-oxime], the IC50 was > 10 µM.
With OC(CNc1ccc(F)cc1)CON=C(C1CC1)C1CC1 (stereo unspecified) [Dicyclopropyl-methanone O-[3-(4-fluoro-phenylamino)-2-hydroxy-propyl]-oxime] the IC50 was > 10 µM.
CC(C)(Cc1ccc(NCC(O)CO[N-][C+](C2CC2)C2CC2)cc1)[N+](=O)[O-] (stereo unspecified) [Dicyclopropyl-methanone O-{2-hydroxy-3-[4-(2-methyl-2-nitro-propyl)-phenylamino]-propyl}-oxime] was tested, and the IC50 was > 10 µM.
For OC(CNc1ccc(C(F)(F)F)cc1)CON=C(C1CC1)C1CC1 (stereo unspecified) [Dicyclopropyl-methanone O-[2-hydroxy-3-(4-trifluoromethyl-phenylamino)-propyl]-oxime], the IC50 was > 10 µM.
For CCCCc1ccc(NCC(O)CON=C(C2CC2)C2CC2)cc1 (stereo unspecified) [Dicyclopropyl-methanone O-[3-(4-butyl-phenylamino)-2-hydroxy-propyl]-oxime], the IC50 was > 10 µM.
In the case of OC(CNc1ccccc1)CON=C(C1CC1)C1CC1 (stereo unspecified) [Dicyclopropylmethanone O-(3-anilino-2-hydroxypropyl)oxime], the IC50 is reported as > 10 µM.
With OC(CNc1ccccc1I)CON=C(C1CC1)C1CC1 (stereo unspecified) [Dicyclopropyl-methanone O-[2-hydroxy-3-(2-iodo-phenylamino)-propyl]-oxime] the IC50 was > 10 µM.
With OC(CNc1ccncc1)CON=C(C1CC1)C1CC1 (stereo unspecified) [Dicyclopropyl-methanone O-[2-hydroxy-3-(pyridin-4-ylamino)-propyl]-oxime] the IC50 was > 10 µM.
With OC(CNc1nc2ccccc2[nH]1)CON=C(C1CC1)C1CC1 (stereo unspecified) [Dicyclopropyl-methanone O-[3-(1H-benzoimidazol-2-ylamino)-2-hydroxy-propyl]-oxime] the IC50 was > 10 µM.
For Cc1cccc(NCC(O)CON=C(C2CC2)C2CC2)n1 (stereo unspecified) [Dicyclopropyl-methanone O-[2-hydroxy-3-(6-methyl-pyridin-2-ylamino)-propyl]-oxime], the IC50 was > 10 µM.
With Cc1cccc(NCC(O)CON=C(C2CC2)C2CC2)c1 (stereo unspecified) [Dicyclopropyl-methanone O-(2-hydroxy-3-m-tolylamino-propyl)-oxime] the IC50 was > 10 µM.
OC(CNc1cccc(I)c1)CON=C(C1CC1)C1CC1 (stereo unspecified) [Dicyclopropyl-methanone O-[2-hydroxy-3-(3-iodo-phenylamino)-propyl]-oxime] was tested, and the IC50 was > 10 µM.
In the case of CC(C)(Cc1ccc(NCC(O)CON=C(C2CC2)C2CC2)cc1)NCC(O)CON=C(C1CC1)C1CC1 (stereo unspecified) [Dicyclopropyl-methanone O-(3-{2-[4-(3-dicyclopropylmethyleneaminooxy-2-hydroxy-propylamino)-phenyl]-1,1-dimethyl-ethylamino}-2-hydroxy-propyl)-oxime], the IC50 is reported as 1.5 µM.
For O=C(O)c1ccc(NCC(O)CON=C(C2CC2)C2CC2)cc1 (stereo unspecified) [4-(3-Dicyclopropylmethyleneaminooxy-2-hydroxy-propylamino)-benzoic acid], the IC50 was > 10 µM.
With OC(CNc1ccc(Cl)cc1)CON=C(C1CC1)C1CC1 (stereo unspecified) [Dicyclopropyl-methanone O-[3-(4-chloro-phenylamino)-2-hydroxy-propyl]-oxime] the IC50 was > 10 µM.
With Cc1ccc(NCC(O)CON=C(C2CC2)C2CC2)nc1 (stereo unspecified) [Dicyclopropyl-methanone O-[2-hydroxy-3-(5-methyl-pyridin-2-ylamino)-propyl]-oxime] the IC50 was > 10 µM.
With OC(CNc1ccc(Br)cc1)CON=C(C1CC1)C1CC1 (stereo unspecified) [Dicyclopropyl-methanone O-[3-(4-bromo-phenylamino)-2-hydroxy-propyl]-oxime] the IC50 was > 10 µM.
Cc1ccnc(NCC(O)CON=C(C2CC2)C2CC2)c1 (stereo unspecified) [Dicyclopropyl-methanone O-[2-hydroxy-3-(4-methyl-pyridin-2-ylamino)-propyl]-oxime] was tested, and the IC50 was > 10 µM.
With Oc1ccc(NCC(O)CON=C(C2CC2)C2CC2)cc1 (stereo unspecified) [Dicyclopropyl-methanone O-[2-hydroxy-3-(4-hydroxy-phenylamino)-propyl]-oxime] the IC50 was > 10 µM.
Cc1ccccc1NCC(O)CON=C(C1CC1)C1CC1 (stereo unspecified) [Dicyclopropyl-methanone O-(2-hydroxy-3-o-tolylamino-propyl)-oxime] was tested, and the IC50 was > 10 µM.
With CCOC(=O)c1ccc(NCC(O)CON=C(C2CC2)C2CC2)cc1 (stereo unspecified) [4-(3-Dicyclopropylmethyleneaminooxy-2-hydroxy-propylamino)-benzoic acid ethyl ester] the IC50 was > 10 µM.
CC(C)(Cc1ccc(N)cc1)NCC(O)CON=C(C1CC1)C1CC1 (stereo unspecified) [Dicyclopropyl-methanone O-{3-[2-(4-amino-phenyl)-1,1-dimethyl-ethylamino]-2-hydroxy-propyl}-oxime] was tested, and the IC50 was 2 µM.
In the case of OC(CNc1ccc(I)cc1)CON=C(C1CC1)C1CC1 (stereo unspecified) [Dicyclopropyl-methanone O-[2-hydroxy-3-(4-iodo-phenylamino)-propyl]-oxime], the IC50 is reported as > 10 µM.
With OC(CNc1nc2ccccc2s1)CON=C(C1CC1)C1CC1 (stereo unspecified) [Dicyclopropyl-methanone O-[3-(benzothiazol-2-ylamino)-2-hydroxy-propyl]-oxime] the IC50 was > 10 µM.
In the case of CC(C)(C)c1ccc(NCC(O)CON=C(C2CC2)C2CC2)cc1 (stereo unspecified) [Dicyclopropyl-methanone O-[3-(4-tert-butyl-phenylamino)-2-hydroxy-propyl]-oxime], the IC50 is reported as > 10 µM.
